Measured values reported in patent US6492344B1, “Syndecan enhancer element and syndecan stimulation of cellular differentiation” (Biotie Therapies Corp., priority 1993, dated 2002).
“Also recorded” adds a separate entry of the source.

Assays:
[1] = system: syndecan-1 expression in 3T3 cells; assay: Quantitation of cell surface syndecan in 3T3 cells exposed to growth factors; format: cell-based, mouse; settings: FGF-2 administered alone
Procedure: Growth factors enhance syndecan expression. NMuMG mouse mammary epithelial cells and 3T3 (NIH) mouse fibroblasts were routinely cultured in bicarbonate-buffered Dulbecco's modified Eagle's medium (DMEM; GIBCO) containing 10% FCS (GIBCO) and antibiotics, as previously described (Elenius et al., J. Biol. Chem. 265:17837-17843 (1990)). For experiments, cells were plated at equal density on culture dishes (Nunc) and grown to 60-70% confluency. Twenty-four hours before supplementing the medium with growth factor(s), the medium on the cells was replaced with fresh medium containing 2% CMS-FCS (Vogel et al., Proc. Natl. Acad. Sci. USA 75:2810-2814 (1978)). Equally treated cultures without growth factor addition served as negative controls. […] For quantitation and isolation of cell surface syndecan, media were discarded at time points indicated in the text and the cell layers were washed twice with ice cold phosphate buffered saline (PBS). […] After subsequent washes by resuspension and centrifugation the cell numbers were measured by counting the nuclei with a Coulter Counter (Coulter Electronics).
For quantitation of syndecan intercalated into the cell membrane, syndecan ectodomain was released by incubating washed cells in 20 μg/ml bovine pancreatic trypsin (Type III; Sigma) in PBS for 10 min on ice bath. […]

syndecan-1 gene = assay: Syndecan-1 mRNA quantification in 3T3NIH cells exposed to FGF-2; format: cell-based, mouse; settings: 3T3NIH cells, 10 ng/ml FGF-2
Excerpt: Northern Blot—RNA was isolated from 3T3 and NMuMG cells using 4 M guanidine isothiocyanate and CsCl density centrifugation (Chirgwin et al., Biochemistry 18:5294-5299 (1979)). RNA samples were size-separated on a 1% agarose formaldehyde gel, transferred to a GeneScreen Plus™ membrane (New England Nuclear) and hybridized with a multi-prime (Amersham) labeled partial cDNA clone for mouse syndecan (PM-4) (Saunders et al., J. Cell Biol. 108:1547-1556 (1989)). After hybridization, the membrane was washed in 2×SSC and 1.0% SDS at 65° C. (high stringency conditions). For rehybridization with glyceraldehyde-3-phosphate-dehydrogenase (GAPDH; Fort et al., Nucleic Acid Res. 13:1431-1442 (1985)), the bound PM-4 probe was removed as recommended by the manufacturer of the filter (NEN).
Following incubation with FGF-2, syndecan MRNA was isolated and quantified. Control incubations without FGF-2 were also performed. Syndecan mRNA was isolated and quantified […] FGF-2 treatment following 6, 12, and 24 hr incubations. The quantification of syndecan mRNA production can be seen in FIG. 11a. GAPDH mRNA was used as a loading control. […] The enhancement appears to be maximal at about 6 hrs of FGF-2 incubation, and decreases thereafter. In the Figure, two individual exposures for each time point are presented.

[2] = system: FGF-inducible Response Element (FiRE); assay: FiRE / Syn Prom CAT reporter in MCA3D keratinocytes; format: cell-based; settings: MCA3D mouse keratinocytes transfected with FiRE construct
Procedure: The cells used for proximal promoter constructs were 3T3 NIH, S115 (either hormone-treated or not) and nMuMG cells. For enhancer constructs we used 3T3 NIH cells grown in 2% CMS medium and MCA 3D cells grown in Ham's medium. 3T3 NIH cells were also used to test the effect of growth factors in 2% CMS medium with 10 ng/ml FGF-2 and 2ng/ml TGFβ-1. MCA 3D cells were used to test the effect of 10 ng/ml KGF.
FiRE is Induced Selectively by FGF-7 in Keratinocytes. The ability of FiRE to enhance transcription was tested in the mouse keratinocyte cell line MCA3D (Kuliz-Martin et al., Carcinogenesis 4:1367-1377 (1983)). MCA3D cells were transfected as described supra for mouse NIH3T3 cells. Following transfection, the cells were treated with fetal calf serum, PDGF, FGF-1, FGF-2, and FGF-7 as described supra for the NIH3T3 cells.

“FGF-2: Basic fibroblast growth factor (FGF-2 or bFGF); recombinant human” was tested, and the syndecan-1 expression [1] was “shows enhancement of syndecan-1 expression”, the “time of maximal enhancement of syndecan mRNA” value (syndecan-1 gene) was “about 6 hrs” and the “syndecan mRNA expression” value (syndecan-1 gene; after 4 hrs) was “significantly enhanced (several fold)”. The FiRE activation [2] was “failed to activate FiRE; also recorded: only slightly activated FiRE”.
